From publication PMC8472512, “Synthesis and Biochemical Evaluation of Baicalein Prodrugs” (Pharmaceutics, 2021)
Converted amounts (≈) assume the structure as drawn.

What was measured:
[1] = in vitro; conditions: PAMPA
[2] = logD7.4 by shake-flask method; type: physicochemical; conditions: 0.1 M phosphate buffer (pH 7.4), duplicate
Method: The assay was conducted as reported previously. Briefly, 100 µM test solutions were prepared by diluting 10 mM stock solutions of the test compounds (baicalein and compounds 1–7) in 0.1 M potassium phosphate buffer (pH 7.4) saturated with 1-octanol. Standard solutions were prepared by diluting each test solution with the same volume of DMSO in HPLC vials. Partition solutions were prepared by mixing each test solution and 1-octanol saturated with 0.1 M potassium phosphate buffer (pH 7.4) at three different volume ratios, namely 1:0.02, 1:0.2 and 1:2, in HPLC vials. The partition solutions were then vortexed for 1 h at 1500 rpm at rt. The standard solutions and the aqueous phase (bottom layer) of each partition solution were analyzed directly from the HPLC vials as described above in Chemical stability assay. The logD7.4 values were calculated by the following equation: logD7.4=log(2×As/Ap−1)·Vt/Vo where As and Ap are, respectively, the peak areas of the standard and the aqueous phase of the partition solutions and Vt and Vo the volumes of test solution and 1-octanol of the partition solutions.

[3] = Chemical stability in physiologically-relevant solutions; type: physicochemical; conditions: 37 °C; for remaining at 4 h, 10 μM: at 4 h vs time 0
Method: Stock solutions of the test compounds (baicalein, compounds 1–7) prepared in MeOH at 10 mM were diluted in 0.1 N HCl and 0.1 M potassium phosphate buffer (pH 6.5 and 7.4) in triplicate to a final concentration of 10 μM. The mixtures were then incubated at 37 °C in a shaking water bath. Samples taken at 0, 1, 2, 3 and 4 h were analyzed by Thermo UltiMate 3000 series HPLC system. Chromatographic separation was performed on an Agilent Eclipse Plus C18 column (100 × 4.6 mm, 3.5 µm) kept at 40 °C with isocratic elution at a flow rate of 0.6 mL/min using a mixture of 0.1 vol% TFA in deionized water and acetonitrile as the mobile phase. The detection wavelengths were 277 and 270 nm for baicalein and compounds 1–7, respectively. Peak areas of the analytes on the UV chromatograms were used to calculate % remaining values at each time points.
The stability of baicalein and of the synthesized carbamate prodrugs (1–7) was determined in solutions mimicking gastric (0.1 N HCl, pH ~ 1), intestinal (pH 6.5 phosphate buffer), and physiological (pH 7.4 phosphate buffer) conditions. […]. […] […]. The degradation of the carbamate prodrugs was accompanied by the formation of baicalein under all conditions in this study (data not shown). Although the exact reason for this pH-dependent stability remains unknown, it is plausible that the side chains of amino acids somehow affect the hydrolysis of the carbamate bond of the prodrugs.

[4] = Kinetic solubility in phosphate buffer (pH 7.4); type: physicochemical; conditions: aqueous buffer, kinetic from dmso stock; shake-flask, 0.1 M phosphate buffer (pH 7.4), triplicate
Method: Stock solutions of the test compounds (baicalein and compounds 1–7) prepared at 10 mM in DMSO were diluted with 0.1 M potassium phosphate buffer (pH 7.4) in Mini-UniPrep filter vial (PTFE membrane, 0.45 μm) to a final concentration of 500 µM. The mixture was then shaken at 800 rpm for 90 min at rt and filtered by slowly pressing the upper tube of the Mini-Uniprep vial. The filtrate (300 µL) was then transferred to an HPLC vial containing same volume of acetonitrile. Sample analysis was conducted as described above in Chemical stability assay.

[5] = PAMPA (parallel artificial membrane permeability assay)
[6] = pH 6.5 buffer (0.1 M potassium phosphate)
[7] = pH 7.4 buffer (0.1 M potassium phosphate)

| SMILES | Papp [1] | Papp [5] | logD [2] | half-life at 10 μM ([3]; buffer, pH 1, 0.1 N HCl, 10 μM) | remaining at 4 h, 10 μM ([3]; buffer, pH 1, 0.1 N HCl) | half-life at 10 μM [3, 6] | remaining at 4 h, 10 μM ([3]; pH 6.5 buffer) | half-life at 10 μM [3, 7] | remaining at 4 h, 10 μM ([3]; pH 7.4 buffer) | solubility kinetic at 90 min [4] |
| --- | --- | --- | --- | --- | --- | --- | --- | --- | --- | --- |
| O=C(N[C@H](CO)[C@H](O)c1ccc([N+](=O)[O-])cc1)C(Cl)Cl [chloramphenicol] | > 10 nm/s | – | – | – | – | – | – | – | – | – |
| NS(=O)(=O)c1cc2c(cc1Cl)NCNS2(=O)=O [hydrochlorothiazide] | < 1 nm/s | – | – | – | – | – | – | – | – | – |
| O=C(O)CNC(=O)Oc1cc2oc(-c3ccccc3)cc(=O)c2c(O)c1O [Compound 7, 2-((((5,6-Dihydroxy-4-oxo-2-phenyl-4H-chromen-7-yl)oxy)carbonyl)amino)acetic acid] | – | – | -0.39 | 1.5 ± 0.3 h | 23.3 ± 3.6% | > 4 h | 82.2 ± 1% | > 4 h | 76.7 ± 0.3% | 357.1 ± 1.4 µM (≈ 133 µg/mL) |
| CC[C@@H](C)[C@H](NC(=O)Oc1cc2oc(-c3ccccc3)cc(=O)c2c(O)c1O)C(=O)O [Compound 3, (2S,3R)-2-((((5,6-Dihydroxy-4-oxo-2-phenyl-4H-chromen-7-yl)oxy)carbonyl)amino)-3-methylpentanoic acid] | – | – | 0.25 | > 4 h | 98.9 ± 5% | > 4 h | 90.2 ± 1.1% | > 4 h | 80.1 ± 2.5% | 447 ± 36.9 µM (≈ 191 µg/mL) |
| CC(C)C[C@H](NC(=O)Oc1cc2oc(-c3ccccc3)cc(=O)c2c(O)c1O)C(=O)O [Compound 1, (S)-2-((((5,6-Dihydroxy-4-oxo-2-phenyl-4H-chromen-7-yl)oxy)carbonyl)amino)-4-methylpentanoic acid] | – | – | 0.39 | 1.4 ± 0.3 h | 17.4 ± 2.1% | > 4 h | 92.9 ± 5% | > 4 h | 98 ± 3.6% | 443 ± 65.9 µM (≈ 189 µg/mL) |

The next lines start with results.

| Papp [1] | Papp [5] | SMILES | logD [2] | half-life at 10 μM ([3]; buffer, pH 1, 0.1 N HCl, 10 μM) | remaining at 4 h, 10 μM ([3]; buffer, pH 1, 0.1 N HCl) | half-life at 10 μM [3, 6] | remaining at 4 h, 10 μM ([3]; pH 6.5 buffer) | half-life at 10 μM [3, 7] | remaining at 4 h, 10 μM ([3]; pH 7.4 buffer) | solubility kinetic at 90 min [4] |
| --- | --- | --- | --- | --- | --- | --- | --- | --- | --- | --- |
| > 10 nm/s | – | CC(C)NCC(O)COc1cccc2ccccc12 (stereo not shown) [propranolol] | – | – | – | – | – | – | – | – |
| – | < 1 nm/s | CC(C)(C)NCC(O)COc1cccc2c1CC(O)C(O)C2 (stereo not shown) [nadolol, reference compound] | – | – | – | – | – | – | – | – |
